Laboratory results published in patent US9682976B2, “Protein kinase C inhibitors and uses thereof” (Rigel Pharmaceuticals, Inc., priority 2012, dated 2017).

Test system: PKC mediated IL-2 production
Assay: IL-2 ELISA, human primary T cell, anti CD3+CD28+
Type: cell-based
Settings: Homo sapiens, T-cell, 24 h, human primary T cells stimulated with αCD3 and αCD28, 24 hours
Experimental: Compounds 1-328 were tested in a whole cell functional assay for PKC mediated IL-2 production as follows. Human primary T cell isolation and culture: Human primary T cells were prepared as follows. Whole blood was obtained from a healthy volunteer, mixed 1:1 with PBS, layered on to Ficoll Hypaque (Amersham Pharmacia Biotech, Piscataway, N.J., Catalog #17-1440-03) in 2:1 blood/PBS:ficoll ratio and centrifuged for 30 minutes at 4° C. at 1750 rpm. The cells at the serum: ficoll interface were recovered and washed twice with 5 volumes of PBS. These freshly isolated human peripheral blood mononuclear cells were cultured in Yssel's medium containing 40 U/ml IL2 in a flask pre-coated with […] αCD3 and 5 μg/ml αCD28 (Anti-Human CD3, BD Pharmingen Catalog #555336, Anti-Human CD28, Beckman Coulter Catalog #IM1376). The cells were stimulated for 3-4 days, then transferred to a fresh flask and maintained in RPMI (RPMI-1640 with L-Glutamine; Mediatech, Inc., Herndon Va., cat. #10-040-CM) with 10% FBS and 40 U/ml IL-2. The primary T-cells were then washed twice with PBS to remove the IL-2.
Primary T cell stimulation and IL2 ELISA: Human primary T cells (100,000 cells per well) were pre-incubated with or without test compound in Yssel's medium for 1 hour at 37° C. Cells were then stimulated by transferring them to round-bottom 96-well plates pre-coated with […] αCD3 and 5 μg/ml αCD28. For counter assay, cells were instead stimulated by adding 8× stock solutions of PMA and ionomycin in Yssels (for final concentrations of 0.5 ng/ml PMA and 0.1 uM ionomycin, both from Calbiochem). Cells were incubated at 37° C. for 24 hours before 100 μL supernatants were harvested for quantification of IL-2 by ELISA using Human IL-2 Duoset ELISA Kit from R and D Systems, Cat. # DY202E.

SMILES	EC50
Fc1cc(C2CC2)c(-n2cnnn2)cc1Nc1ncc(F)c(NC2CCN3CCCC3C2)n1 (racemic) [Compound 24, (±)-N^2-(4-cyclopropyl-2-fluoro-5-(1H-tetrazol-1-yl)phenyl)-5-fluoro-n^4-(octahydroindolizin-7-yl)pyrimidine-2,4-diamine]	100 to 500 nM
Cn1nnn(-c2cc(Nc3ncc(F)c(NC4CCN5C(CCC5(C)C)C4)n3)c(F)cc2C2CC2)c1=O (racemic) [Compound 26, 1-(5-(5-fluoro-4-(octahydro-3,3-dimethylindolizin-7-ylamino)pyrimidin-2-ylamino)-2-cyclopropyl-4-fluorophenyl)-4-methyl-1H-tetrazol-5(4H)-one]	1000 to 10000 nM
Cn1nnn(-c2cc(Nc3ncc(F)c(NC4CCN5CCCC5C4)n3)c(F)cc2C2CC2)c1=O (racemic) [Compound 27, (±)-1-(5-(5-fluoro-4-(octahydroindolizin-7-ylamino)pyrimidin-2-ylamino)-2-cyclopropyl-4-fluorophenyl)-4-methyl-1H-tetrazol-5(4H)one]	1000 to 10000 nM

Next, values leading:

EC50	SMILES
1000 to 10000 nM	Cn1nnn(-c2cc(Nc3ncc(F)c(N[C@@H]4C[C@@H]5CCC(=O)N5C(C)(C)C4)n3)c(F)cc2C2CC2)c1=O (racemic) [Compound 31, 1-(5-(5-fluoro-4-(hexahydro-5,5-dimethylindolizin-3(5H)-one-7-ylamino)pyrimidin-2-ylamino)-2-cyclopropyl-4-fluorophenyl)-4-methyl-1H-tetrazol-5(4H)-one]
1000 to 10000 nM	Cn1nnn(-c2cc(Nc3ncc(F)c(N[C@H]4C[C@@H]5CCC(=O)N5C(C)(C)C4)n3)c(F)cc2C2CC2)c1=O (racemic) [Compound 32, 1-(5-(5-fluoro-4-(hexahydro-5,5-dimethylindolizin-3(5H)-one-7-ylamino)pyrimidin-2-ylamino)-2-cyclopropyl-4-fluorophenyl)-4-methyl-1H-tetrazol-5(4H)-one]
100 to 500 nM	Cn1nnn(-c2cc(Nc3ncc(F)c(NC4CC5CCCN5C(C)(C)C4)n3)ccc2OC2COC2)c1=O (racemic) [Compound 38, 1-(5-(5-fluoro-4-(octahydro-5,5-dimethylindolizin-7-ylamino)pyrimidin-2-ylamino)-2-(oxetan-3-yloxy)phenyl)-4-methyl-1H-tetrazol-5(4H)-one]
< 100 nM	CC1(C)C[C@H](Nc2nc(Nc3cc(-n4cnnn4)c(C4CC4)cc3F)ncc2F)C[C@@H]2CCCN21 (racemic) [Compound 53, (±)-N^2-(4-cyclopropyl-2-fluoro-5-(1H-tetrazol-1-yl)phenyl)-5-fluoro-n^4-(octahydro-5,5-dimethylindolizin-7-yl)pyrimidine-2,4-diamine]
100 to 500 nM	CC1(C)CC(Nc2nc(Nc3ccc(O[C@@H]4CCOC4)c(C#N)c3)ncc2F)CC2CCCN21 (mixture of isomers) [Compound 57, 2-((R)-tetrahydrofuran-3-yloxy)-5-(5-fluoro-4-(octahydro-5,5-dimethylindolizin-7-ylamino)pyrimidin-2-ylamino)benzonitrile]
100 to 500 nM	CC1(C)CC(Nc2nc(Nc3ccc(O[C@H]4CCOC4)c(C#N)c3)ncc2F)CC2CCCN21 (mixture of isomers) [Compound 60, 2-((S)-tetrahydrofuran-3-yloxy)-5-(5-fluoro-4-(octahydro-5,5-dimethylindolizin-7-ylamino)pyrimidin-2-ylamino)benzonitrile]
< 100 nM	Cn1nnn(-c2cc(Nc3ncc(C#N)c(N[C@@H]4C[C@@H]5CCCN5C(C)(C)C4)n3)c(F)cc2C2CC2)c1=O (racemic) [Compound 66, 4-((R/S,S/R)-Octahydro-5,5-dimethylindolizin-7-ylamino)-2-(4-cyclopropyl-2-fluoro-5-(4,5-dihydro-4-methyl-5-oxotetrazol-yl)phenylamino) pyrimidine-5-carbonitrile]
1000 to 10000 nM	Cn1nnn(-c2cc(Nc3ncc(F)c(NC4CCN5C(CCC5(C)C)C4)n3)c(F)cc2C2CC2)c1=O (single isomer, unassigned) [Compound 34, 1-(5-(5-fluoro-4-(octahydro-3,3-dimethylindolizin-7-ylamino)pyrimidin-2-ylamino)-2-cyclopropyl-4-fluorophenyl)-4-methyl-1H-tetrazol-5(4H)-one]

Same assay, conditions: human primary T cells stimulated with αCD3 and αCD28, 24 hours

SMILES	EC50
Cn1nnn(-c2cc(Nc3ncc(F)c(N[C@@H]4CCN5C(CCC5(C)C)C4)n3)c(F)cc2C2CC2)c1=O (mixture of isomers) [Compound 25]	1000 to 10000 nM
CC1(C)Oc2ccc(Nc3ncc(F)c(N[C@H]4C[C@@H]5CCCN5C(C)(C)C4)n3)cc2-n2nnnc21 (single isomer, unassigned) [Compound 3, N2-(4,4-dimethyl-4H-benzo[b]tetrazolo[1,5-d][1,4]oxazin-8-yl)-5-fluoro-N4-(octahydro-5,5-dimethylindolizin-7-amine)pyrimidine-2,4-diamine]	500 to 1000 nM
CC(C)N1CCC(Oc2ccc(Nc3ncc(F)c(N[C@H]4C[C@H]5CCCN5C(C)(C)C4)n3)cc2OC(F)F)CC1 (single isomer, unassigned) [Compound 7, (R/S, S/R, R/R, S/S)-N^2-(4-(1-isopropylpiperidin-4-yloxy)-3-(difluoromethoxy)phenyl)-5-fluoro-N^4-(octahydro-5,5-dimethylindolizin-7-yl)pyrimidine-2,4-diamine]	1000 to 10000 nM
CC(C)N1CCC(Oc2ccc(Nc3ncc(F)c(N[C@@H]4C[C@H]5CCCN5C(C)(C)C4)n3)cc2OC(F)F)CC1 (single isomer, unassigned) [Compound 8, (R/S, S/R, R/R, S/S)-N^2-(4-(1-isopropylpiperidin-4-yloxy)-3-(difluoromethoxy)phenyl)-5-fluoro-N^4-(octahydro-5,5-dimethylindolizin-7-yl)pyrimidine-2,4-diamine]	500 to 1000 nM
CC(C)N1CCC(Oc2ccc(Nc3ncc(F)c(N[C@H]4C[C@@H]5CCCN5C(C)(C)C4)n3)cc2OC(F)F)CC1 (single isomer, unassigned) [Compound 9, (R/S, S/R, R/R, S/S)-N^2-(4-(1-isopropylpiperidin-4-yloxy)-3-(difluoromethoxy)phenyl)-5-fluoro-N^4-(octahydro-5,5-dimethylindolizin-7-yl)pyrimidine-2,4-diamine]	100 to 500 nM
CC(C)N1CCC(Oc2ccc(Nc3ncc(F)c(N[C@@H]4C[C@@H]5CCCN5C(C)(C)C4)n3)cc2OC(F)F)CC1 (single isomer, unassigned) [Compound 10, (R/S, S/R, R/R, S/S)-N^2-(4-(1-isopropylpiperidin-4-yloxy)-3-(difluoromethoxy)phenyl)-5-fluoro-N^4-(octahydro-5,5-dimethylindolizin-7-yl)pyrimidine-2,4-diamine]	100 to 500 nM
COc1cc(Nc2ncc(F)c(N[C@H]3C[C@H]4CCCN4C(C)(C)C3)n2)cc(-n2nnnc2C)c1 (single isomer, unassigned) [Compound 11, (R/S, S/R, R/R, S/S)-5-fluoro-N4-(octahydro-5,5-dimethylindolizin-7-yl)N2-(3-methoxy-5-(5-methyl-1H-tetrazol-1-yl)phenyl)pyrimidine-2,4-diamine]	1000 to 10000 nM
COc1cc(Nc2ncc(F)c(N[C@@H]3C[C@H]4CCCN4C(C)(C)C3)n2)cc(-n2nnnc2C)c1 (single isomer, unassigned) [Compound 12, (R/S, S/R, R/R, S/S)-5-fluoro-N4-(octahydro-5,5-dimethylindolizin-7-yl)N2-(3-methoxy-5-(5-methyl-1H-tetrazol-1-yl)phenyl)pyrimidine-2,4-diamine]	500 to 1000 nM
COc1cc(Nc2ncc(F)c(N[C@H]3C[C@@H]4CCCN4C(C)(C)C3)n2)cc(-n2nnnc2C)c1 (single isomer, unassigned) [Compound 13, (R/S, S/R, R/R, S/S)-5-fluoro-N4-(octahydro-5,5-dimethylindolizin-7-yl)N2-(3-methoxy-5-(5-methyl-1H-tetrazol-1-yl)phenyl)pyrimidine-2,4-diamine]	< 100 nM
COc1cc(Nc2ncc(F)c(N[C@@H]3C[C@@H]4CCCN4C(C)(C)C3)n2)cc(-n2nnnc2C)c1 (single isomer, unassigned) [Compound 14, (R/S, S/R, R/R, S/S)-5-fluoro-N4-(octahydro-5,5-dimethylindolizin-7-yl)N2-(3-methoxy-5-(5-methyl-1H-tetrazol-1-yl)phenyl)pyrimidine-2,4-diamine]	< 100 nM

Now from value to molecule:

EC50	SMILES
1000 to 10000 nM	Cn1nnn(-c2cc(Nc3ncc(F)c(NC4CCN5C(CCC5(C)C)C4)n3)c(F)cc2C2CC2)c1=O (single isomer, unassigned) [Compound 35, 1-(5-(5-fluoro-4-(octahydro-3,3-dimethylindolizin-7-ylamino)pyrimidin-2-ylamino)-2-cyclopropyl-4-fluorophenyl)-4-methyl-1H-tetrazol-5(4H)-one]
1000 to 10000 nM	Cn1nnn(-c2cc(Nc3ncc(F)c(N[C@@H]4CCN5[C@@H](CCC5(C)C)C4)n3)c(F)cc2C2CC2)c1=O (single isomer, unassigned) [Compound 36]
1000 to 10000 nM	Cn1nnn(-c2cc(Nc3ncc(F)c(N[C@H]4CCN5[C@@H](CCC5(C)C)C4)n3)c(F)cc2C2CC2)c1=O (single isomer, unassigned) [Compound 37]
